Source: the supplement of paper PMC10331698
± gives the standard deviation of the averaged measurements.

Experiments:
Experiment in all cases: level (log10 ratio to DMSO vehicle control); higher = higher biomarker level / cell amount than vehicle control
[1] = compound: O=S(=O)(O)C(F)(F)C(F)(F)OC(F)(F)C(F)(F)F [Perfluoro(2-ethoxyethane)sulfonic acid] (in DMSO)
Method: (§1)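 BioMAP Diversity Plus panel of 12 human primary cell co-culture systems (3C, 4H, LPS, SAg, BT, BF4T, BE3C, CASM3C, HDF3CGF, KF3CT, MyoF, Mphg). Compounds were added 1 h before stimulation and left for 24 h (MyoF 48 h; BT 72 h for soluble read-outs or 6 d for IgG). Biomarkers were read by ELISA, cytotoxicity by SRB, PBMC viability and proliferation by Alamar Blue. Each well value was divided by the mean of 8 DMSO control wells on the same plate and log10 transformed; duplicate blinded samples were tested at 4 concentrations.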

[2] = compound: CCOC(=O)CC(=O)C(F)(F)C(F)(F)F [Ethyl pentafluoropropionyl acetate] (in DMSO)
Method: as §1

[3] = compound: CN(C(=O)C(F)(F)C(F)(F)C(F)(F)F)[Si](C)(C)C [N-Methyl-N-trimethylsilylheptafluorobutyramide] (in DMSO)
Method: as §1

[4] = compound: O=S(=O)(O)CCC(F)(F)C(F)(F)C(F)(F)C(F)(F)C(F)(F)C(F)(F)C(F)(F)C(F)(F)F [8:2 Fluorotelomer sulfonic acid] (in DMSO)
Method: as §1

[5] = compound: NS(=O)(=O)C(F)(F)C(F)(F)C(F)(F)C(F)(F)C(F)(F)C(F)(F)C(F)(F)C(F)(F)F [Perfluorooctanesulfonamide] (in DMSO)
Method: as §1

[6] = compound: O=C(O)C(F)(F)OC(F)(F)C(F)(F)OC(F)(F)C(F)(F)OC(F)(F)C(F)(F)C(F)(F)C(F)(F)F [Perfluoro-3,6,9-trioxatridecanoic acid] (in DMSO); conditions: 6700 nM
Method: as §1

[7] = compound: O=C(O)C=C(C(F)(F)F)C(F)(F)F [3,3-Bis(trifluoromethyl)-2-propenoic acid] (in DMSO)
Method: as §1

Test System | level (log10) ([1]; 6700 nM) | level (log10) ([1]; 20000 nM) | level (log10) ([1]; 60000 nM) | level (log10) ([2]; 6700 nM) | level (log10) ([2]; 20000 nM) | level (log10) ([2]; 60000 nM) | level (log10) ([3]; 6700 nM) | level (log10) ([3]; 20000 nM) | level (log10) ([3]; 60000 nM) | level (log10) ([4]; 6700 nM) | level (log10) ([4]; 20000 nM) | level (log10) ([4]; 60000 nM) | level (log10) ([5]; 6700 nM) | level (log10) ([5]; 20000 nM) | level (log10) [6] | level (log10) ([7]; 6700 nM) | level (log10) ([7]; 20000 nM) | level (log10) ([7]; 60000 nM)
LPS:IL-1alpha | 0.026 ± 0.025 | 0.044 ± 0.016 | 0.011 ± 0.027 | 0 ± 0.034 | -0.0335 ± 0.025 | 0.0115 ± 0.019 | -0.004 ± 0.041 | 0.017 ± 0.0071 | 0.02 ± 0.0028 | -0.0195 ± 0.03 | -0.016 ± 0.037 | -0.283 ± 0.19 | -0.0195 ± 0.025 | -0.013 ± 0.0071 | -0.038 ± 0.013 | -0.0355 ± 0.015 | -0.0495 ± 0.023 | -0.095 ± 0.02
BT:sIL-2 | -0.023 ± 0.0085 | -0.0935 ± 0.04 | -0.0595 ± 0.066 | -0.058 ± 0.099 | -0.0055 ± 0.04 | -0.007 ± 0.069 | -0.0665 ± 0.013 | -0.0325 ± 0.056 | 0.045 ± 0.042 | -0.023 ± 0.073 | 0.0195 ± 0.057 | 0.009 ± 0.011 | -0.0115 ± 0.049 | 0.0005 ± 0.028 | 0.0075 ± 0.016 | -0.297 ± 0.042 | -0.529 ± 0.02 | -0.648 ± 0.072
BF4T:CD54/ICAM-1 | -0.003 ± 0.0028 | -0.0125 ± 0.0064 | -0.008 ± 0.017 | -0.0075 ± 0.0064 | -0.003 ± 0.014 | -0.02 ± 0.0071 | -0.0145 ± 0.0064 | -0.0045 ± 0.023 | -0.0115 ± 0.00071 | -0.006 ± 0.0014 | -0.0175 ± 0.00071 | -0.0325 ± 0.013 | -0.029 ± 0.0014 | -0.06 ± 0.045 | -0.0705 ± 0.019 | -0.0195 ± 0.005 | -0.0205 ± 0.005 | -0.0075 ± 0.013
LPS:CD141/Thrombomodulin | 0.067 ± 0.0085 | 0.057 ± 0.055 | 0.051 ± 0.072 | 0.0635 ± 0.016 | 0.0625 ± 0.012 | 0.077 ± 0.055 | -0.0125 ± 0.0064 | -0.014 ± 0.0085 | -0.018 ± 0.014 | 0.007 ± 0.11 | 0.0505 ± 0.071 | 0.205 ± 0.016 | 0.037 ± 0.072 | 0.0785 ± 0.066 | -0.015 ± 0.0028 | -0.0835 ± 0.093 | -0.091 ± 0.14 | -0.026 ± 0.12
4H:CCL2/MCP-1 | -0.019 ± 0.05 | -0.008 ± 0.021 | -0.0015 ± 0.016 | -0.0235 ± 0.029 | -0.0455 ± 0.064 | -0.008 ± 0.1 | -0.0405 ± 0.028 | -0.0525 ± 0.039 | 0.0195 ± 0.11 | -0.001 ± 0.014 | -0.033 ± 0.016 | 0.0125 ± 0.046 | -0.093 ± 0.023 | -0.124 ± 0.0021 | -0.029 ± 0.0099 | -0.051 ± 0.035 | -0.0675 ± 0.005 | -0.081 ± 0.052
BE3C:HLA-DR | -0.0085 ± 0.033 | -0.012 ± 0.014 | -0.0335 ± 0.0092 | 0.014 ± 0.023 | -0.006 ± 0.0014 | -0.0005 ± 0.005 | -0.009 ± 0.0014 | -0.0105 ± 0.0021 | 0.009 ± 0.033 | -0.0175 ± 0.037 | -0.111 ± 0.005 | -0.255 ± 0.0014 | -0.0975 ± 0.013 | -0.136 ± 0.011 | -0.8695 ± 0.0078 | -0.0175 ± 0.0064 | -0.0245 ± 0.011 | -0.0355 ± 0.016
LPS:CD62E/E-Selectin | 0.0105 ± 0.022 | 0.0215 ± 0.019 | 0.0275 ± 0.0078 | 0.015 ± 0.0085 | 0.0055 ± 0.018 | 0.0095 ± 0.039 | 0.0095 ± 0.026 | 0.002 ± 0.014 | 0.0105 ± 0.054 | 0.0235 ± 0.06 | 0.033 ± 0.02 | 0.082 ± 0.025 | -0.015 ± 0.023 | 0.018 ± 0.016 | -0.024 ± 0.0057 | -0.013 ± 0.021 | -0.025 ± 0.0071 | -0.0345 ± 0.005
BE3C:CD87/uPAR | -0.014 ± 0.035 | 0.012 ± 0.014 | 0.0075 ± 0.0021 | 0.0145 ± 0.03 | -0.0045 ± 0.023 | 0.0065 ± 0.03 | 0.0055 ± 0.016 | 0.0275 ± 0.019 | 0.0275 ± 0.026 | 0.0225 ± 0.0035 | 0.0135 ± 0.011 | -0.01 ± 0.031 | -0.01 ± 0.0071 | -0.0025 ± 0.019 | -0.48 ± 0.05 | -0.0365 ± 0.025 | -0.0635 ± 0.013 | -0.012 ± 0.013
